# Results from patent publication US20060062842A1, “Method of administering a compound to multi-drug resistant cells” (Alza Corporation, priority 1998, published 2006).
# Experiments:
# tumor cells = assay: Adoptive tumor growth assay, subcutaneous injection; assay type: in vivo, mice; settings: treated tumor cells injected subcutaneously (FIG. 16)
# Description: FIG. 16 is a plot showing the number of palpable tumors after subcutaneous injection of untreated (control, open circles) or in vitro treated tumor cells with free doxorubicin (closed circles), doxorubicin entrapped in non-targeted liposomes (open squares) and doxorubicin entrapped in folate-targeted liposomes (closed triangles).
# M109R cells = assay: Multidrug-resistance of M109R subline; assay type: cell-based, murine
# Description: (i) Cell lines: M109, a murine lung carcinoma line of BALB/c mice (Marks, T. A. et al., Cancer Treat. Rep., 61:1459-1470 ([…])), and a subline of these cells, M109R displaying multidrug-resistance, (approximately 100 fold increased resistance to doxorubicin) were used in most of the studies. Both cell lines express in vitro low amounts of folic acid receptors and are therefore referred to as M109-LoFR and M109R-LoFR. By culturing these cells in folic acid-free medium for several passages, two sublines expressing a high amount of folic acid receptors were obtained. These sublines were adapted to grow under low folic acid conditions with generation doubling times similar to the lines of origin.
# [1] = test system: drug-sensitive (M109) cells; assay: Cell-associated doxorubicin after exposure; assay type: cell-based, murine; settings: 0.5×10^-6 M doxorubicin
# Procedure: (§1) The doxorubicin was administered to the cells in free form and entrapped in folate-targeted liposomes. The cell-associated drug was measured after 1 hour and 4 hours of exposure to doxorubicin.
# [2] = test system: drug-resistance (M109R) cells; assay: Cell-associated doxorubicin after exposure; assay type: cell-based, murine; settings: Drug-Resistant Cells, 0.2×10^-5 M doxorubicin
# Procedure: as §1
# M109R-HiFR cells [3] = assay: In vivo adoptive tumor growth assay, footpad; parameters: species or system BALB/c mice
# Description: To examine the biological activity of drug delivered by the folate-pathway from folate-targeted liposomes in another model, M109R-HiFR cells in vitro were exposed to a test drug. These cells were inoculated into mice footpads. In this way, the growth of cells was tracked along a much longer time span than in in vitro experiments, and the influence of in vivo micro-environmental factors is brought into play. However, unlike therapeutic experiments, this type of in vivo adoptive assay is unaffected by pharmacokinetic and biodistribution factors which complicat the interpretation of results.
# Accordingly, tumor cells in vitro were incubated with free doxorubicin or with liposome-entrapped, non-folate-targeted doxorubicin (DOXIL®) or with folate-targeted, liposome-entrapped doxorubicin in accord with the invention. As described in Example 9, the tumor cells were incubated in the presence of the selected formulation for 1 hour and then 1×10^6 cells were injected into the footpad of a mouse, each treatment formulation being injected into 8 mice.
# At the end of the study on day 34 after injection of the treated tumor cells, the weight of each tumor-bearing mouse footpad was determined and […] to determine the tumor weight in each mouse footpad.
# Female 10-week-old BALB/c mice were maintained in a specific pathogen-free facility. M109R-HiFR cells in in vitro suspension (10^7 cells/ml) were exposed to 10^−5M doxorubicin either as free drug, as liposome-entrapped (Doxil®), or as folate-targeted liposome-entrapped […], washed with PBS, and then resuspended at a concentration of 2×10^7 cells. Healthy, syngeneic BALB/c mice were injected into the right hind footpad with 50 μl (10^6 cells). The footpad thickness was measured with calipers once or twice a week for 5 weeks. After 35 days, mice were sacrificed, the final number of tumors recorded, and the control and tumor-inoculated footpads were sectioned at the ankle level and weighed. Tumor weight was estimated as the difference between the weight of the normal and tumor-bearing footpad. The statistical significance of differences in the final incidence of tumors per group was analyzed by contingency tables and the Fisher's exact test.
# M109R-HiFR cells [4] = assay: Verapamil blockade of efflux pump and doxorubicin delivery; settings: for Intracellular Doxorubicin Content: 0.5×10^-5 M doxorubicin, verapamil 10 μmol where named
# M109R-HiFR cells [5] = assay: Fluorescence tracking of doxorubicin in cells; assay type: cell-based, murine
# Procedure: As described in Example 5, folate-targeted liposomes containing doxorubicin were prepared and incubated with M109R-HiFR cells. For comparison, M109R-HiFR cells were also incubated with free doxorubicin or with liposomes containing doxorubicin but with no folate targeting ligand.
# In another study, the ability of the M109R-HiFR cells to retain doxorubicin after treatment for 1 hour with either free doxorubicin or with doxorubicin-loaded folate-targeted liposomes, followed by incubation in drug-free medium for 24 hours was examined.
# M109 HIFR cells were plated, 24 hours prior to each study, on 24 mm cover slips inserted into 35 mm culture dishes. […]
# Examination of the cells was done with inverted Zeiss confocal laser scanning microscope (LSM410) (Carl Zeiss, Jena, Germany). Maximum excitation was done by 543 nm line of the internal He-neon laser; fluorescence emission was observed above 570 nm with long-pass barrier filter LP-570) for rhodamine. For doxorubicin, maximum excitation was done by 488 nm line of internal Argon laser: fluorescence emission was observed above 515 nm with long pass barrier filter LP-515. […]
# M109R-HiFr cells were incubated with free doxorubicin or with doxorubicin entrapped in folate-targeted liposomes at a doxorubicin concentration of 4×10^−5 M. The doxorubicin molecule was tracked using fluorescence.
# M109R-HiFR cells [6] = assay: Folic acid binding to cell lines
# Human Melanoma line A375 = assay: Folic acid binding to cell lines; settings: 30 min at 37° C.
# Procedure: (§2) These cell lines and their capacity to bind folic acid were determine as set forth in Example 2B, by incubating the cells for 30 minutes with folic acid at 37° C.
# (§3) Radioactivity was determined by liquid scintillation counting.
# [7] = test system: Murine Lung Carcinoma High Folate Receptor cells; assay: Folic acid binding to cell lines; settings: Murine Lung Carcinoma High Folate Receptor (printed M109R-HiFR); 30 min at 37° C.
# Procedure: as §2, §3
# Normal Human Fibroblasts = assay: Folic acid binding to cell lines; settings: NHF; 30 min at 37° C.
# Procedure: as §2, §3
# M109R-LoFR cells = assay: Folic acid binding to cell lines; parameters: species or system murine; settings: incubation 30 min at 37° C.
# Procedure: as §2, §3
# M109-LoFR cells = assay: Folic acid binding to cell lines; parameters: species or system murine; settings: incubation 30 min at 37° C.
# Procedure: as §2, §3
# KB-HiFR cells = assay: Folic acid binding to cell lines; parameters: species or system human
# Procedure: as §2, §3
# KB-LoFR cells = assay: Folic acid binding to cell lines; parameters: species or system human
# Procedure: as §2, §3
# [8] = cells exposed in vitro to 10^-5 M doxorubicin, 5 weeks follow-up
smiles,measurement,setting,value
"COc1cccc2c1C(=O)c1c(O)c3c(c(O)c1C2=O)C[C@@](O)(C(=O)CO)C[C@@H]3O[C@H]1C[C@H](N)[C@H](O)[C@H](C)O1 [Free Doxorubicin, doxorubicin]",number of palpable tumors,tumor cells,significant number of tumors
same,increased resistance of M109R versus M109,M109R cells,approximately 100 fold
same,Percent doxorubicin administered remaining in cells,[1]; exposure 1 hour,8.6%
same,intracellular doxorubicin,[1]; exposure 1 hour,25 ng/1.5 × 10^6 cells
same,Percent doxorubicin administered remaining in cells,[1]; exposure 4 hours,12.4%
same,intracellular doxorubicin,[1]; exposure 4 hours,36.1 ng/1.5 × 10^6 cells
same,Percent doxorubicin administered remaining in cells,[2]; exposure 1 hour,5.5%
same,intracellular doxorubicin,[2]; exposure 1 hour,159 ng/1.5 × 10^6 cells
same,Percent doxorubicin administered remaining in cells,[2]; exposure 4 hours,4.2%
same,intracellular doxorubicin,[2]; exposure 4 hours,122 ng/1.5 × 10^6 cells
same,Final Tumor Incidence (%),M109R-HiFR cells [3]; [8],42%
same,Final Tumor Incidence (tumors/mice),M109R-HiFR cells [3]; [8],8/19
same,Median Tumor weight (range),M109R-HiFR cells [3]; footpad tumor weight at end of study,239 (32-683) mg
same,footpad thickness,"M109R-HiFR cells [3]; tumor cells treated in vitro, 10^6 cells injected into footpad (FIG. 15A)",increase in footpad thickness
same,cell fluorescence by flow cytometry in presence of verapamil,M109R-HiFR cells [4]; FIGS. 11A-11B,clear increase of cell fluorescence
same,Intracellular Doxorubicin Content,M109R-HiFR cells [4]; exposure time 30 minutes,24 ng/1.5 × 10^6 cells
same,Intracellular Doxorubicin Content,M109R-HiFR cells [4]; exposure time 60 minutes,42.5 ng/1.5 × 10^6 cells
same,cell retention of doxorubicin in presence versus absence of verapamil,M109R-HiFR cells [4]; verapamil 10 μmol,~4.5 fold
same,doxorubicin fluorescence retained in cells,"M109R-HiFR cells [5]; 1 hour treatment, then 24 hours in drug-free medium (FIGS. 10C-10D)",almost completely waned
same,time at which drug is located in the nucleus,"M109R-HiFR cells [5]; doxorubicin 4×10^-5 M (FIGS. 9B, 9E)",≤ 30 min
Nc1nc2ncc(CNc3ccc(C(=O)N[C@@H](CCC(=O)O)C(=O)O)cc3)nc2c(=O)[nH]1 [folic acid],FOLIC ACID BINDING,"M109R-HiFR cells [6]; Multidrug-resistant High Folate Receptor M109R-HiFR, 30 min at 37° C.",2179 ± 430 FENTOMOLES/10^4 CELLS
same,folic acid remaining bound following acid wash,"M109R-HiFR cells [6]; acid wash pH 3, binding at ~1° C. for 30 min",2±1%
same,loss of folic acid receptors shown by binding assay with folic acid,M109R-HiFR cells [6]; monolayers pretreated with PI-PLC,99%
same,cell-bound radiolabeled folic acid recovered after trypsinization,M109R-HiFR cells [6]; trypsin treatment,91±11%
same,FOLIC ACID BINDING,Human Melanoma line A375,168 ± 33 FENTOMOLES/10^4 CELLS
same,FOLIC ACID BINDING,[7],678 ± 255 FENTOMOLES/10^4 CELLS
same,FOLIC ACID BINDING,Normal Human Fibroblasts,45 ± 3 FENTOMOLES/10^4 CELLS
same,FOLIC ACID BINDING,M109R-LoFR cells,27 ± 10 FENTOMOLES/10^4 CELLS
same,FOLIC ACID BINDING,M109-LoFR cells; M109-LoFR after culture in folic acid-depleted medium for 24 h,25 ± 13 FENTOMOLES/10^4 CELLS
same,FOLIC ACID BINDING,M109-LoFR cells; M109-LoFR,20 ± 6 FENTOMOLES/10^4 CELLS
same,difference in folic acid binding capacity,KB-HiFR cells; KB-HiFR (highest) compared with M109-LoFR (lowest),up to 485 fold
same,FOLIC ACID BINDING,"KB-HiFR cells; KB-HiFR, 30 min at 37° C.",9730 ± 79 FENTOMOLES/10^4 CELLS
same,increase in folic acid binding,KB-LoFR cells; KB-LoFR after 24 hours in folic acid-depleted medium,15 fold
same,FOLIC ACID BINDING,"KB-LoFR cells; KB-LoFR after culture in folic acid-depleted medium for 24 h, 30 min at 37° C.",6725 ± 323 FENTOMOLES/10^4 CELLS
